Experimental data reported in patent publication US20190142829A1, “AMELIORATION OF ANGELMAN'S SYNDROME DEFICIENCIES” (Neuralstem, Inc., priority 2017, published 2019).

Experiments:
[1] = system: hippocampal slices from normal, healthy, young adult mice (field CA1); assay: LTP elicited by theta burst stimulation in hippocampal slices treated in vitro, normal mice; assay type: cell-based; details: 100 nM to 10 μM for up to 3.5 h before theta burst stimulation, applicant's work, Liu et al, SfN Abstract 2016
Description: In work by applicant, hippocampal slices from normal, healthy, young adult mice were treated with various concentrations of NSI-189 (100 nM to 10 μM) for various times up to 3.5 h, before applying theta burst stimulation (TBS) to elicit long-term potentiation (LTP) in field CA1.

[2] = system: hippocampal brain slices prepared from young adult Angelman mice; assay: LTP in hippocampal brain slices treated in vitro, Angelman mice; assay type: cell-based; details: slices from Angelman mice (maternal Ube3A deletion); transient treatment for 3.5 hours; Liu et al, SfN Abstract 2016
Source text: Further, in a mouse model of Angelman syndrome, carrying the same maternal Ube3A deletion affected in human AS patients, the normal LTP is absent.

[3] = system: mice with Angelman syndrome (AS); assay: Fear-conditioning test, mouse model of Angelman syndrome; assay type: in vivo; details: 30 mg/kg phosphate salt i.p. daily, 2 weeks, vs vehicle, p<0.01, FIG. 1
Description: (§1) Four groups (n=4/5 per group) of young adult mice (age ˜3 months) were administered 30mg/kg of the phosphate salt of NSI-189 i.p. daily for 13-15 days for behavior assays and for 18 days prior to termination followed by in vitro LTP assays or administered only vehicle. The groups included • (1) mice with Angelman syndrome (AS) treated with NSI-189, • (2) mice with Angelman syndrome (AS) treated with vehicle, • (3) wild-type littermates treated with NSI-189, and • (4) wild-type littermates treated with vehicle.
The behavior assay conducted was fear-conditioning test as diagnostic of hippocampal memory function.

[4] = system: mice with Angelman syndrome (AS); assay: LTP assay on post-mortem hippocampal slices after in vivo dosing, AS mice; details: 30 mg/kg phosphate salt i.p. daily for 18 days, vs vehicle, p<0.05, FIG. 2
Description: as §1

wild type mice = assay: LTP assay on post-mortem hippocampal slices after in vivo dosing, wild type mice; details: 30 mg/kg phosphate salt i.p. daily for 18 days, FIG. 2
Description: as §1

AS mice = assay: Wire hang test (Hanging Wire test), AS mice; assay type: in vivo; details: phosphate i.p. over 21 days: D1-D7 3, D8-D14 10, D15-D21 30 mg/kg, maximum 120 sec, ultimately matched wild type, FIG. 3
Description: The wire hang test evaluates muscle strength as well as motor coordination. The set up includes a wire (0.2 cm in diameter×54.5 cm in length) stretched horizontally between two poles and elevated from a padded surface. The test starts when the mouse hangs onto the wire from its two forelimbs and lasts for 120 sec maximum. The time before falling, or the maximum score of 120 sec if no fall occurred, is recorded for each animal.
Four groups 5 mice for each group were used. Controls were administered vehicle and test groups were administered NSI-189 phosphate i.p. over 21 days as follows: D1-D7—3 mg/kg NSI-189 phosphate; D8-D14—10 mg/kg NSI-189 phosphate; D15-D21—30 mg/kg NSI-189 phosphate.
As shown, the AS mice administered only vehicle were not able to hang onto the wire for more than about 20 seconds, whereas AS mice treated with NSI-189 ultimately matched the times of wild type mice at about 100 seconds.

## CC(C)CCNc1ncccc1C(=O)N1CCN(Cc2ccccc2)CC1.O=P(O)(O)O [NSI-189]
[1]
  effect on long-term potentiation (LTP) in field CA1: statistically significant enhancement of the normal LTP level
[2]
  effect on LTP activity: restore the LTP activity to normal level
[3]
  freezing time following ring-tone (memory deficit): memory deficit was diminished
[4]
  LTP in post-mortem hippocampal slices: restoration of LTP
Wild type mice
  LTP in post-mortem hippocampal slices: improved
AS mice
  time before falling (hanging on the wire): about 100 seconds
